Test results: US8426677B2, “Method of controlling plant growth and architecture by controlling expression of gibberellin 2-oxidase” (Academia Sinica, priority 2008, dated 2013)

B1: GA2ox5: rice class C20 gibberellin 2-oxidase (SEQ ID NO:2), expressed in E. coli and partially purified (protein, listed as Oryza sativa)
chain: MEEHDYDSNSNPPLMSTYKHLFVEQHRLDMDMGAIDVDECELPVIDLAGLMEAEQVCRADMVRAASEWGFFQVTNHGVPQALLRELHDAQVAVFRRPFQEKVTERLLGFSPESYRWGTPTAKCLEQLSWSEAYHIPMTTPRPSTSIRARAVIEEVSRAMYELAQKLAEILMRGLPGAGEGETMVTTREETCFLRLNRYPPCAMAMGGFGLCPHTDSDLLTIVHQQQDTVGGLQLLKGGRWVAVKPSPSTLIVNVGDLLQAWSNDVYKSVEHRVMANATLERFSMAFFLCPSYHTLIIPSSSHVHDDDAHYRSFTFGEYRKQIMEDVRSTGRKIGLHRFRTR
B2: GA2ox6: rice class C20 gibberellin 2-oxidase (SEQ ID NO:4), expressed in E. coli and partially purified (protein, listed as Oryza sativa)
chain: MPAFADIAIDPPLADSYRALALLRRDRDGGIAPPAVQMVGSGGAVLERDLPMVDLERLTRGGAGERKACAGAMARAASEWGFFQLTNHGVGRELMEEMRREQARLFRLPFETKEKAGLLNGSYRWGNPTATSLRHLSWSEAFHVPLASISGADCDFGDLTSLRGVMQEVAEAMSRVANTVAAALAEELTGRGGGGASAAPWFPAGCDETTCFLRLNRYPACPFAADTFGLVPHTDSDFLTVLCQDQVGGLHLMKDSRWVAVRPRPDALVVNIGDLFQAWSNNRYKSVEHKVVANAKTDRLSVAYFLCPSYDSLVGTCGEPSPYRAFTFGEYRKKVQEDVRTTGKKIGLPNFFKHSSVQ

Tests used:
[1] = test system: GA2ox6ACT mutant and wild type rice seeds/seedlings; experiment: Germination and seedling growth of rice on MS agar medium with or without GA3; assay type: in vivo, Oryza sativa
Protocol: To determine whether the dwarfism of rice mutants overexpressing GA2ox was a result of a reduction of bio-active GAs, GA2ox6ACT mutant seeds were germinated on MS agar medium with or without supplementation with 5 μM GA3.
The rice cultivar Oryza sativa L. cv Tainung 67 was used as in this study. Four T-DNA tagged rice GA2ox mutant lines were obtained from the Taiwan Rice Insertional Mutagenesis database (TRIM database, http://trim.sinica.edu.tw/). T1 mutant seeds were surface sterilized in 2.5% NaClO for 18 minutes, washed well with sterile water, placed on MS agar medium (Murashige and Skoog Basal Medium, Sigma), and incubated at 28° C. with continuous light for 15˜20 days. Wild type rice was grown under the same conditions. Plants were transplanted to pot soil and grown in a net-house during the growing season.

[2] = test system: Ubi::GA2ox6 transgenic rice and wild type; experiment: GA3 treatment of wild type and Ubi::GA2ox6 transgenic rice grown in pot soil (plant height); assay type: in vivo, Oryza sativa; settings: 10 μM GA3 at a 12-day interval for 5 weeks
[3] = test system: GA2ox6ACT mutant seedlings; experiment: Tiller and adventitious root development of seedlings grown in media with or without GA3; assay type: in vivo, Oryza sativa; settings: 5 μM GA3 in medium
Source text: (§1) Additionally, the inhibition of tillering by GA3 was independent of rice growth stage (see FIG. 15B). […] Both GA-treated GA2ox6ACT mutant and wild-type plants produced 2-3 times fewer tillers than mutant and wild-type plants without GA treatment (FIG. 15B).

[4] = test system: wild type and GA2ox6ACT plants; experiment: Tiller number of 1-month-old plants in pot soil sprayed with GA3; assay type: in vivo, Oryza sativa; settings: 10 μM GA3 spray once every 7 days, 3 sprays, GA2ox6ACT mutant and wild type
Source text: as §1

OSH1 mRNA = experiment: RT-PCR of OSH1 mRNA in embryos containing tiller buds; assay type: in vivo, Oryza sativa; settings: 12 DAI
Protocol: (§2) To determine whether GA deficiency induced expression of OSH1 and TB1 that in turn promotes tillering and root development, GA2ox5Δ335-341ACT, GA2ox6ACT and wild type seedlings were grown in media with or without 5 μM GA3 after germination. Rice embryos containing tiller buds were collected at 12 DAI. […] It is not clear why the accumulation of OSH1 and TB1 mRNAs in the wild type was enhanced by GA3 (FIG. 14A), nevertheless, its stem became slenderer and adventitious root growth was inhibited similar as mutants (FIG. 14B).
(§3) Total RNA was purified from rice tissues using a Trizol reagent (Invitrogen). Total RNA (15 μg aliquots) was treated with 1 unit of RNase-free DNase I (Promega) in a 20 μL volume and incubated at 37° C. for 30 min. The RNA sample was then incubated at 65° C. for 10 min and placed on ice. cDNA synthesis was performed in a 20 μL mixture containing 1× reverse transcription reaction buffer (Invitrogen), 4.5 μg of purified RNA, 400 ng oligo (dT)16 primer, 5 mM DTT, 0.5 mM each dNTP, 40 units RNasin (Promega), and 200 units Superscript® III reverse transcriptase (Invitrogen). The reaction was carried out at room temperature (25° C.) for 10 min, transferred to 50° C. for 1 h, and terminated by heating at 72° C. for 15 min. The sample, which served as a cDNA stock for PCR analysis, was then stored at −70° C. […]

TB1 mRNA = experiment: RT-PCR of TB1 mRNA in embryos containing tiller buds; assay type: in vivo, Oryza sativa; settings: 12 DAI
Protocol: as §2, §3

GA2ox6 mRNA = experiment: RT-PCR of GA2ox6 mRNA in leaves and roots of seedlings; assay type: in vivo, Oryza sativa; settings: GA3 treatment, wild type and GA2ox6ACT mutant seedlings at 18 DAI
Protocol: Total RNA was purified from rice tissues using a Trizol reagent (Invitrogen). Total RNA (15 μg aliquots) was treated with 1 unit of RNase-free DNase I (Promega) in a 20 μL volume and incubated at 37° C. for 30 min. The RNA sample was then incubated at 65° C. for 10 min and placed on ice. cDNA synthesis was performed in a 20 μL mixture containing 1× reverse transcription reaction buffer (Invitrogen), 4.5 μg of purified RNA, 400 ng oligo (dT)16 primer, 5 mM DTT, 0.5 mM each dNTP, 40 units RNasin (Promega), and 200 units Superscript® III reverse transcriptase (Invitrogen). The reaction was carried out at room temperature (25° C.) for 10 min, transferred to 50° C. for 1 h, and terminated by heating at 72° C. for 15 min. The sample, which served as a cDNA stock for PCR analysis, was then stored at −70° C.
RT-PCR analysis was carried out in a 15 μl, solution containing 0.9 μL cDNA, 1×PCR buffer (Promega), 1.5 mM MgCl2, 0.2 mM each dNTP, 0.3 μmole each primer, 3% DMSO, and 0.6 units of Taq DNA polymerase (Promega). For GA2ox2, GA2ox7, and GA2ox8 that had very low mRNA abundance, RT-PCR analysis was carried out using KOD Hot Start DNA Polymerase (Novagen). Each 15 μL of reaction solution contained 0.9 μL cDNA, 1×PCR buffer (Novagen), 1.0 mM MgSO4, 0.2 mM each dNTP, 0.3 μmole each primer, 3% DMSO, and 1 unit of KOD Hot Start DNA Polymerase (Novagen). […]

[5] = In vitro enzyme activity of recombinant GST fusion GA2ox5 and GA2ox6 expressed in E. coli; assay type: biochemical, Oryza sativa; settings: partially purified glutathione S-transferase fusion protein
Source text: GA53, a precursor of GA1, could be converted to GA97 in vitro by the Arabidopsis class C20 GA2ox through 2β-hydroxylation (Schomburg et al., 2003). The in vitro activity of rice GA2ox5 and GA2ox6 were also investigated by overexpression as fusion proteins with glutathione S-transferase in E. coli. Fusion proteins were partially purified and their enzyme activity analyzed.
Full length cDNAs of GA2ox5 and GA2ox6 in the pGEM®-T Easy cloning vector were digested with BamHI and subcloned into the same site in pGEX-5X expression vector (Amersham Biosciences). The resulting expression vectors were used to transform E. coli strain BL21-CodonPlus® (DE3) RIPL (Stratagen). A volume of 5 mL transformants pre-cultured overnight in Luria-Bertani broth (LB broth, DIFCO) was transferred to 500 mL of LB broth with 100 mgL^−1 ampicillin and incubated at 37° C. until cell density reached an OD600 around 0.6˜0.8. Isopropyl-β-D-thiogalactopyranoside (IPTG) was added to the bacteria culture to a final concentration of 0.3 mM and incubated at 28° C. for another 3 hours. Bacteria were pelleted by centrifuge and harvested, resuspended in BugBuster® Protein Extraction Reagent (Novagen) at room temperature for 10˜20 minutes, and centrifuged at […] for 30 min. The supernatant protein extracts were partially purified through GST-Bind resin (Novagen), and the purified protein extracts were stored at −80° C. […]

[6] = 5 μM GA3, GA2ox5Δ335-341ACT and GA2ox6ACT mutants

Molecule | Root lengths of wild type and GA2ox6ACT mutant seedlings ([1]; 5 μM GA3, 18 DAI) | Height of dwarf GA2ox6ACT mutant seedlings, recovery relative to the wild type ([1]; 5 μM GA3, GA2ox6ACT mutant, 18-day-old seedlings) | Plant height of 18-day-old wild-type seedlings ([1]; 5 μM GA3, wild type, 18 DAI) | Germination of GA2ox6ACT seeds ([1]; 5 μM GA3 in MS agar medium) | Final height of Ubi::GA2ox6 transgenic plants relative to the wild type [2] | Height of wild type plant ([2]; wild type) | Root system compared to the mutant without GA treatment ([3]; GA2ox6ACT mutant) | Time at which the first tiller developed ([3]; GA2ox6ACT mutant (9 DAI without GA treatment)) [DAI] | Tillers produced compared to plants without GA treatment [4] | OSH1 mRNA level in mutants (OSH1 mRNA; [6]) | OSH1 mRNA accumulation in the wild type (OSH1 mRNA; 5 μM GA3, wild type) | TB1 mRNA level in mutants (TB1 mRNA; [6]) | TB1 mRNA accumulation in the wild type (TB1 mRNA; 5 μM GA3, wild type) | GA2ox6 mRNA accumulation in leaves and roots (GA2ox6 mRNA) | Conversion of GA53 to GA97 (2β-hydroxylation) [5]
C=C1C[C@]23C[C@@]1(O)CC[C@H]2[C@@]12C=C[C@H](O)[C@@](C)(C(=O)O1)[C@H]2[C@@H]3C(=O)O [GA3] | effectively enhanced | up to 84 % of the wild type | only slightly enhanced | promoted germination | 63 % of the WT | not altered | significantly reduced | 16 | 2-3 times fewer | significantly reduced | enhanced | significantly reduced | enhanced | unaffected | –
B1 | – | – | – | – | – | – | – | – | – | – | – | – | – | – | could convert GA53 to GA97
B2 | – | – | – | – | – | – | – | – | – | – | – | – | – | – | could convert GA53 to GA97
